Source: patent US6444612B1, “Use of 5-amino-pyrazol-derivatives for combating micro-organisms” (Bayer Aktiengesellschaft, priority 1998, dated 2002)

Tested on: not listed separately
Assay: log P value (physical constant)
Format: physicochemical
Settings: acidic

SMILES | logP
CCOC(=O)c1c(CC)nn(C)c1NC(=O)Cc1cccc(Cl)c1 [Example 89, 5-(3-chloro-phenyl-acetyl)-amino-3-ethyl4-ethoxycarbonyl-l-methyl-pyrazole] | 2.65

Same assay, conditions: logP, Table 4

SMILES | Physical constant (logP)
Cc1cc(-c2ccc(Cl)cc2)cc(C)c1CC(=O)Nc1c(C#N)c(C)nn1C [Example 154] | logP = 3.46
Cc1cc(C)c(-c2ccc(Cl)cc2)c(C)c1CC(=O)Nc1c(C#N)c(C)nn1C [Example 159] | logP = 3.70
Cc1cc(C)c(-c2ccccc2Cl)cc1CC(=O)Nc1c(C#N)c(C)nn1C [Example 157] | logP = 3.24
Cc1cc(C)cc(-c2cc(C)c(CC(=O)Nc3c(C#N)c(C)nn3C)c(C)c2)c1 [Example 152] | logP = 3.88
CC(=NOCc1ccccc1)c1cccc(CC(=O)Nc2c(Cl)c(C)nn2C)c1 [Example 126] | logP = 3.31
CCc1nn(C)c(NC(=O)Cc2c(C)cc(-c3ccc(Cl)cc3)cc2C)c1C#N [Example 166] | logP = 3.74
Cc1cc(NC(=O)Cc2ccccc2Cl)n(CCC#N)n1 [Example 113] | logP = 1.77
CCc1nn(C)c(NC(=O)Cc2ccc(OC(C)=O)cc2)c1C#N [Example 120] | logP = 1.84
Cc1cc(NC(=O)Cc2ccc(Cl)cc2Cl)n(C)n1 [Example 121] | logP = 2.06
Cc1cc(-c2cccc(Cl)c2)cc(C)c1CC(=O)Nc1c(C#N)c(C)nn1C [Example 155] | logP = 3.42
CCc1nn(C)c(NC(=O)Cc2cc(-c3ccccc3Cl)c(C)cc2C)c1C#N [Example 169] | logP = 3.51
CCCNC(=O)c1ccccc1CC(=O)Nc1c(Cl)c(C)nn1C [Example 133] | logP = 1.92
Cc1ccc(Oc2ccccc2CC(=O)Nc2c(Cl)c(C)nn2C)c(C)c1 [Example 138] | logP = 3.44
Cc1cc(C)cc(-c2cc(C)c(CC(=O)Nc3c(Cl)c(C)nn3C)c(C)c2)c1 [Example 141] | logP = 4.09
CCOC(=O)c1c(CC)nn(C)c1NC(=O)Cc1ccc(OCc2ccccc2)cc1 [Example 104] | logP = 3.26
Cn1nc(C2CC2)c(Cl)c1NC(=O)Cc1ccc(Oc2ccc(C#N)cc2)cc1 [Example 110] | logP = 2.90
CC(=NOCc1c(Cl)cccc1Cl)c1cccc(CC(=O)Nc2c(Cl)c(C)nn2C)c1 [Example 131] | logP = 3.91
COC(=O)c1c(C)nn(C)c1NC(=O)Cc1cccc(Br)c1 [Example 135] | logP = 2.11
CC(=NOC(C)(C)C)c1cccc(CC(=O)Nc2c(Cl)c(C)nn2C)c1 [Example 130] | logP = 3.53
CC(=NOCc1ccc(Cl)cc1Cl)c1cccc(CC(=O)Nc2c(Cl)c(C)nn2C)c1 [Example 129] | logP = 4.30
Cc1cc(C)c(-c2ccc(Cl)cc2)cc1CC(=O)Nc1c(C#N)c(C)nn1C [Example 158] | logP = 3.49
CCc1nn(C)c(NC(=O)C=Cc2ccc(Oc3ccc([N+](=O)[O-])cc3)cc2)c1C#N [Example 108] | logP = 3.05

SMILES | Physical constant (logP)
CCc1nn(C)c(NC(=O)Cc2c(C)cc(-c3ccccc3OC)cc2C)c1C#N [Example 165] | logP = 3.20
COc1ccccc1-c1cc(C)c(CC(=O)Nc2c(C#N)c(C)nn2C)c(C)c1 [Example 153] | logP = 2.95
Cc1cc(C)c(-c2ccc(Cl)cc2)cc1CC(=O)Nc1c(Cl)c(C)nn1C [Example 146] | logP = 3.82
CCc1nn(C)c(NC(=O)Cc2c(C)cc(C)cc2C)c1Cl [Example 102] | logP = 3.01
Cc1cc(C)c(-c2ccccc2Cl)cc1CC(=O)Nc1c(Cl)c(C)nn1C [Example 145] | logP = 3.64
CCc1nn(C)c(NC(=O)Cc2cccc(C(C)=O)c2)c1C#N [Example 115] | logP = 1.71
COC(=O)c1c(C)nn(C)c1NC(=O)Cc1cccc(C(C)=O)c1 [Example 116] | logP = 1.50
Cc1nn(C)c(NC(=O)Cc2ccc(-c3ccccc3)cc2)c1Cl [Example 139] | logP = 2.81
Cc1ccc(-c2cccc(Cl)c2)cc1CC(=O)Nc1c(Cl)c(C)nn1C [Example 140] | logP = 3.53
Cc1nn(C)c(NC(=O)Cc2ccccc2C(=O)NCc2ccc(Cl)nc2)c1Cl [Example 134] | logP = 1.91
CCOC(=O)c1c(CC)nn(C)c1NC(=O)Cc1cccc(Oc2ccccc2)c1 [Example 111] | logP = 3.28
CON=C(C)c1cccc(CC(=O)Nc2c(Cl)c(C)nn2C)c1 [Example 124] | logP = 2.32
CCc1nn(C)c(NC(=O)Cc2ccc(-c3ccccc3)cc2)c1C#N [Example 162] | logP = 2.81
CC(=O)Oc1cccc(CC(=O)Nc2c(C#N)c(C)nn2C)c1 [Example 119] | logP = 1.88
Cn1nc(C2CC2)cc1NC(=O)Cc1ccc(Oc2ccc(C#N)cc2)cc1 [Example 109] | logP = 2.45
CCc1nn(C)c(NC(=O)Cc2c(C)cc(-c3cc(C)cc(C)c3)cc2C)c1C#N [Example 164] | logP = 3.96
Cc1nn(C)c(NC(=O)Cc2ccc(-c3ccccc3)cc2)c1C#N [Example 150] | logP = 2.57
Cc1cc(-c2cccc(Cl)c2)cc(C)c1CC(=O)Nc1c(Cl)c(C)nn1C [Example 143] | logP = 3.79
Cc1nn(C)c(NC(=O)Cc2c(F)cc(F)c(F)c2C(F)(F)F)c1C#N [Example 160] | logP = 2.32
CCc1nn(C)c(NC(=O)Cc2ccccc2Oc2ccc(C)cc2C)c1C#N [Example 161] | logP = 3.44
CC(=O)c1cccc(CC(=O)Nc2c(C#N)c(C)nn2C)c1 [Example 114] | logP = 1.48
CCOC(=O)c1c(CC)nn(C)c1NC(=O)C=Cc1ccc(Oc2ccc(C#N)cc2)cc1 [Example 106] | logP = 3.16

SMILES | Physical constant (logP)
CCON=C(C)c1cccc(CC(=O)Nc2c(Cl)c(C)nn2C)c1 [Example 125] | logP = 2.88
CC(=NO)c1cccc(CC(=O)Nc2c(Cl)c(C)nn2C)c1 [Example 123] | logP = 1.85
Cc1ccc(-c2ccc(Cl)cc2)cc1CC(=O)Nc1c(C#N)c(C)nn1C [Example 151] | logP = 3.20
C=CCON=C(C)c1cccc(CC(=O)Nc2c(Cl)c(C)nn2C)c1 [Example 132] | logP = 2.80
CCc1nn(C)c(NC(=O)Cc2c(C)cc(-c3cccc(Cl)c3)cc2C)c1C#N [Example 167] | logP = 3.70
CCc1nn(C)c(NC(=O)Cc2cc(-c3ccc(Cl)cc3)c(C)cc2C)c1C#N [Example 170] | logP = 3.77
CCOC(=O)c1c(CC)nn(C)c1NC(=O)C=Cc1ccc(Oc2ccc([N+](=O)[O-])cc2)cc1 [Example 107] | logP = 3.41
Cc1cc(C)c(CC(=O)Nc2c(C#N)c(C)nn2C)c(C)c1 [Example 137] | logP = 2.36
CC(=NOCc1ccc(Cl)nc1)c1cccc(CC(=O)Nc2c(Cl)c(C)nn2C)c1 [Example 128] | logP = 2.80
Cc1cc(C)c(-c2ccc(Cl)cc2)c(C)c1CC(=O)Nc1c(Cl)c(C)nn1C [Example 147] | logP = 4.08
Cc1ccc(Oc2ccccc2CC(=O)Nc2c(C#N)c(C)nn2C)c(C)c1 [Example 149] | logP = 3.17
Cc1ccc(-c2ccc(Cl)cc2)c(C)c1CC(=O)Nc1c(Cl)c(C)nn1C [Example 144] | logP = 3.84
Cc1nn(C)c(NC(=O)Cc2c(F)cc(F)c(F)c2C(F)(F)F)c1Cl [Example 148] | logP = 2.60
CCc1nn(C)c(NC(=O)Cc2c(C)cc(C)cc2C)c1C#N [Example 136] | logP = 2.83
CCc1nn(C)c(NC(=O)Cc2cc(-c3ccc(Cl)cc3)ccc2C)c1C#N [Example 163] | logP = 3.49
Cc1nn(C)c(NC(=O)Cc2ccccc2C(=O)O)c1Cl [Example 122] | logP = 1.50
Cc1ccc(-c2ccc(Cl)cc2)c(C)c1CC(=O)Nc1c(C#N)c(C)nn1C [Example 156] | logP = 3.43
CCc1nn(C)c(NC(=O)Cc2c(F)cc(F)c(F)c2C(F)(F)F)c1C#N [Example 172] | logP = 2.59
CCc1cc(NC(=O)Cc2ccc(Br)cc2)n(C)n1 [Example 105] | logP = 2.13
CC(=NOCc1ccc(C(F)(F)F)cc1)c1cccc(CC(=O)Nc2c(Cl)c(C)nn2C)c1 [Example 127] | logP = 3.83
COc1ccccc1-c1cc(C)c(CC(=O)Nc2c(Cl)c(C)nn2C)c(C)c1 [Example 142] | logP = 3.25

Tested on: Venturia inaequalis
Assay: Venturia test (apple)/protective
Format: in vivo
Settings: protective, application rate 100 g/ha, evaluation 12 days after inoculation, 100% = no infection
Procedure: Venturia Test (Apple)/Protective
Solvent: 47 parts by weight of acetone
Emulsifier: 3 parts by weight of alkylaryl polyglycol ether
To produce a suitable preparation of active compound, 1 part by weight of active compound is mixed with the stated amounts of solvent and emulsifier, and the concentrate is diluted with water to the desired concentration.
To test for protective activity, young plants are sprayed with the preparation of active compound at the stated application rate. After the spray coating has dried on, the plants are inoculated with an aqueous conidia suspension of the apple pathogen Venturia inaequalis and then remain in an incubation cabin at about 20° C. and 100% relative atmospheric humidity for 1 day.
The plants are then placed in the greenhouse at about 21° C. and a relative atmospheric humidity of about 90%.
Evaluation is carried out 12 days after the inoculation. 0% means an efficacy which corresponds to that of the control, whereas an efficacy of 100% means that no infection is observed.

SMILES | Efficacy in % [%]
CCc1nn(C)c(NC(=O)Cc2ccc(-c3ccc(OC(F)(F)F)cc3)cc2)c1Cl [drawing 292] | 96
CCc1cc(NC(=O)Cc2ccc(-c3ccc(OC(F)(F)F)cc3)cc2)n(C)n1 | 96
CCOC(=O)c1c(CC)nn(C)c1NC(=O)Cc1cccc(Oc2ccc(OC(F)(F)F)cc2)c1 [drawing 290] | 90
CCOC(=O)c1c(CC)nn(C)c1NC(=O)Cc1ccc(-c2ccc(OC(F)(F)F)cc2)cc1 [drawing 291] | 93
